Experimental data taken from patent US20250186554A1, “FORMULATIONS COMPRISING ACID-NEUTRALIZING POLYMER FOR ORAL ADMINISTRATION OF GLUCAGON-LIKE PEPTIDE-1 AND ANALOGS THEREOF” (Entera Bio Ltd., priority 2022, published 2025).

Tests used:
[1] = pH upon addition of test substance to 0.1 M HCl solution (pH 1.2), pH meter; type: physicochemical
Method: Test substances were dissolved in various volumes of 0.1 M HCl solution (pH 1.2) at concentrations of 1, 2, 4, 10, 20, 50, 100 and 150 mg/ml. The solution pH was determined using an MP-103 pH-meter (MRC, Israel) equipped with ELC-10-00 electrode (MRC, Israel) or with a thin electrode HI1083 (HANNA instruments Inc.), shortly after dissolution and up to 26 hours later in order to ensure that the pH remained stable. The highest pH value obtained during the experimental time period was recorded in order to compare the acid-neutralizing capacity of each substance.
SNAC and the basic polymers sodium alginate, sodium carboxymethylcellulose in non-crosslinked (Na-CMC) and crosslinked (croscarmellose sodium, CCS) forms, and sodium starch glycolate (SSG) were dissolved in various volumes of 0.1 M HCl solution (pH 1.2) at concentrations of 1, 2, 4, 10, 20, 50, 100 and 150 mg/ml, and the solution pH was determined using an MP-103 pH-meter (MRC, Israel) equipped with ELC-10-00 electrode (MRC, Israel), as described in the Materials and Methods section hereinabove.
In order to obtain a beneficial rise in pH with a reduced loss of the active form of the absorption enhancer, the effect of various concentrations of different polymers containing carboxylate groups (sodium alginate, sodium starch glycolate, sodium carboxymethylcellulose, and croscarmellose sodium) on pH upon addition to a 0.1 M HCl solution (pH 1.2) was also evaluated. FIG. 2A presents pH values determined using an MP-103 pH-meter (MRC, Israel) equipped with ELC-10-00 electrode (MRC, Israel) and FIG. 2B presents pH values determined using an MP-103 pH-meter (MRC, Israel) equipped with a thin electrode HI1083 (HANNA instruments Inc.).

[2] = in vivo; cited from earlier work

| pH 5 minutes after dissolution ([1]; 10 mg/ml SNAC added to HCl solution (pH 1.2)) | pH 5 minutes after dissolution ([1]; 20 mg/ml SNAC added to HCl solution (pH 1.2)) | pH 5 minutes after dissolution ([1]; 100 mg/ml SNAC added to HCl solution (pH 1.2)) | Compound | half-life [2] |
| --- | --- | --- | --- | --- |
| about 1.5 | 6.5 | about 7.5 | O=C(O)CCCCCCCNC(=O)c1ccccc1O [SNAC, sodium 8-N-(2-hydroxybenzoyl)aminocaprylate] | – |
| – | – | – | Semaglutide: fatty acid derivative of a GLP-1 homolog | about 7 days |
